Columns and labels:
[1] = xn = mol fraction of the nth substance listed; conditions: for mass density / speed of sound / viscosity: 101 kPa, Liquid
[2] = refractive index (Na D-line) (dimensionless); xn = mol fraction of the nth substance listed; conditions: 101 kPa, Liquid

CC(=O)CC(C)(C)O [4-hydroxy-4-methylpentan-2-one] + CCc1ccccc1
Conditions | mass density, [1] [kg/m3] | refractive index, [2] | speed of sound, [1] [m/s] | surface tension liquid-gas, [1] [mN/m] | viscosity, [1] [mPa·s]
303.15 K, x1 = 0.1814 | 880.9 | 1.4864 | 1322 | 29.92 | 1.02
303.15 K, x1 = 0.2621 | 886.6 | 1.4813 | 1316 | 29.88 | 1.191
303.15 K, x1 = 0.3445 | 892.5 | 1.4753 | 1311 | 29.84 | 1.35
303.15 K, x1 = 0.4219 | 898 | 1.4701 | 1305 | 29.8 | 1.511
303.15 K, x1 = 0.5447 | 906.5 | 1.4599 | 1296 | 29.76 | 1.752
303.15 K, x1 = 0.6624 | 914.7 | 1.4505 | 1286 | 29.71 | 2.001
303.15 K, x1 = 0.7667 | 922 | 1.4425 | 1277 | 29.62 | 2.266
303.15 K, x1 = 0.8388 | 926.5 | 1.4373 | 1271 | 29.58 | 2.433
303.15 K, x1 = 0.9219 | 931.5 | 1.43 | 1264 | 29.5 | 2.66
303.15 K, x1 = 1 | 936 | 1.4239 | 1256 | 29.44 | 2.89
313.15 K, x1 = 0.1814 | 856 | 1.479 | 1271 | 29.04 | 0.9211
313.15 K, x1 = 0.2621 | 861.8 | 1.4741 | 1265 | 29.04 | 1.066
313.15 K, x1 = 0.3445 | 867.8 | 1.469 | 1257 | 29.03 | 1.234
313.15 K, x1 = 0.4219 | 873.3 | 1.4637 | 1250 | 29.03 | 1.4
313.15 K, x1 = 0.5447 | 882.2 | 1.454 | 1237 | 29.03 | 1.501
313.15 K, x1 = 0.6624 | 890.8 | 1.4458 | 1224 | 29.03 | 1.688
313.15 K, x1 = 0.7667 | 897.5 | 1.4384 | 1212 | 29.03 | 1.911
313.15 K, x1 = 0.8388 | 902.2 | 1.4335 | 1204 | 29 | 2.377
313.15 K, x1 = 0.9219 | 907.6 | 1.4264 | 1194 | 28.95 | 2.511
313.15 K, x1 = 1 | 912.1 | 1.4198 | 1183 | 28.92 | 2.791
323.15 K, x1 = 0.1814 | 845.9 | 1.4721 | 1192 | 27.97 | 0.7842
323.15 K, x1 = 0.2621 | 851.6 | 1.4675 | 1186 | 27.9 | 0.8814
323.15 K, x1 = 0.3445 | 857.5 | 1.4624 | 1180 | 27.82 | 0.9901
323.15 K, x1 = 0.4219 | 863 | 1.4518 | 1175 | 27.75 | 1.011
323.15 K, x1 = 0.5447 | 871.5 | 1.451 | 1165 | 27.64 | 1.201
323.15 K, x1 = 0.6624 | 879.9 | 1.4433 | 1156 | 27.53 | 1.354
323.15 K, x1 = 0.7667 | 886.6 | 1.4363 | 1146 | 27.44 | 1.521
323.15 K, x1 = 0.8388 | 891.3 | 1.4285 | 1138 | 27.35 | 1.812
323.15 K, x1 = 0.9219 | 896.9 | 1.4225 | 1130 | 27.24 | 2.082
323.15 K, x1 = 1 | 901 | 1.4151 | 1121 | 27.12 | 2.67

CC(=O)CC(C)(C)O [4-hydroxy-4-methylpentan-2-one] + O=[N+]([O-])c1ccccc1
Conditions | mass density, [1] [kg/m3] | refractive index, [2] | speed of sound, [1] [m/s] | surface tension liquid-gas, [1] [mN/m] | viscosity, [1] [mPa·s]
303.15 K, x1 = 0.1248 | 1163.9 | 1.5377 | 1395 | 39.8 | 2.022
303.15 K, x1 = 0.2389 | 1130.2 | 1.5245 | 1378 | 38.7 | 2.161
303.15 K, x1 = 0.3446 | 1102.1 | 1.5113 | 1363 | 37.5 | 2.282
303.15 K, x1 = 0.4921 | 1062 | 1.4931 | 1341 | 35.9 | 2.45
303.15 K, x1 = 0.5853 | 1038 | 1.4822 | 1327 | 34.7 | 2.562
303.15 K, x1 = 0.6427 | 1023 | 1.474 | 1317 | 34 | 2.624
303.15 K, x1 = 0.7532 | 995.6 | 1.4601 | 1298 | 32.7 | 2.735
303.15 K, x1 = 0.8226 | 979.1 | 1.45 | 1287 | 31.7 | 2.791
303.15 K, x1 = 0.9349 | – | 1.43 | 1263 | 29.5 | 2.889
303.15 K, x1 = 1 | 936 | 1.4239 | 1256 | 29.44 | 2.89
313.15 K, x1 = 0.1248 | 1157.7 | 1.5351 | 1304 | 37.45 | 1.752
313.15 K, x1 = 0.2389 | 1120.9 | 1.521 | 1290 | 36.6 | 1.931
313.15 K, x1 = 0.3446 | 1088.8 | 1.508 | 1277 | 35.6 | 2.137
313.15 K, x1 = 0.4921 | 1046.3 | 1.4897 | 1258 | 34.3 | 2.412
313.15 K, x1 = 0.5853 | 1019.9 | 1.4782 | 1244 | 33.4 | 2.541
313.15 K, x1 = 0.6427 | 1004.4 | 1.4706 | 1236 | 32.8 | 2.661
313.15 K, x1 = 0.7532 | 975.5 | 1.4548 | 1221 | 31.7 | 2.741
313.15 K, x1 = 0.8226 | 957.8 | 1.4456 | 1211 | 31 | 2.764
313.15 K, x1 = 0.9349 | – | 1.4261 | 1190 | 29.4 | 2.79
313.15 K, x1 = 1 | 912 | 1.4198 | 1183 | 28.92 | 2.791
323.15 K, x1 = 0.1248 | 1146.5 | 1.5304 | 1212 | 35.8 | 1.658
323.15 K, x1 = 0.2389 | 1109.6 | 1.5268 | 1201 | 35 | 1.843
323.15 K, x1 = 0.3446 | 1077.5 | 1.5048 | 1192 | 34.3 | 2.018
323.15 K, x1 = 0.4921 | 1035 | 1.486 | 1178 | 33.11 | 2.32
323.15 K, x1 = 0.5853 | 999.9 | 1.475 | 1169 | 32.3 | 2.492
323.15 K, x1 = 0.6427 | 993.1 | 1.4675 | 1163 | 31.8 | 2.579
323.15 K, x1 = 0.7532 | 964.3 | 1.4503 | 1152 | – | 2.651
323.15 K, x1 = 0.8226 | 946.6 | 1.4412 | 1144 | 30.1 | 2.661
323.15 K, x1 = 0.9349 | 910 | 1.4215 | 1128 | 28.8 | 2.67
323.15 K, x1 = 1 | 901 | 1.4151 | 1121 | 28.12 | 2.67

From the NIST ThermoML archive (doi:10.1021/je8002699)
